Values quoted from earlier work in article PMC2936243 (Journal of neurochemistry, 2010).
Marks after values point to notes of the source that are not given here.

How the values were obtained:
Conditions in all cases: cited from earlier work
[1] = system: GABAARs that contain the β3 subunit
[2] = system: unknown site in brain tissue from α7 knockout mice
[3] = system: nAChR subtypes that contain the α1 and α9 subunits
[4] = system: α3* and α6* containing nAChR subtypes

Substance | binding to GABAARs [1] | residual binding in α7 knockout brain tissue [2] | binding to α1 and α9 containing nAChRs [3] | binding selectivity [4]
α-bungarotoxin [α-BgTx] | binds to a subset of GABAARs that contain the β3 subunit | significant residual α-BgTx binding to an unknown site | also binds to non-α7 nAChR subtypes including those that contain the α1 and α9 subunits | –
monoiodinated α-conotoxin MII [[^125I]-α-CTx MII] | – | – | – | selectively binds to α3* and α6* containing nAChR subtypes
